{"source": "patent US12281057B2", "about": "(VERTEX PHARMACEUTICALS INCORPORATED, priority 2017, dated 2025)", "data": [{"target": "truncated form of human NaV 1.8 with full channel activity (Homo sapiens, UniProt Q9Y5Y9)", "sequence (Q9Y5Y9 126-1722 limits assumed)": "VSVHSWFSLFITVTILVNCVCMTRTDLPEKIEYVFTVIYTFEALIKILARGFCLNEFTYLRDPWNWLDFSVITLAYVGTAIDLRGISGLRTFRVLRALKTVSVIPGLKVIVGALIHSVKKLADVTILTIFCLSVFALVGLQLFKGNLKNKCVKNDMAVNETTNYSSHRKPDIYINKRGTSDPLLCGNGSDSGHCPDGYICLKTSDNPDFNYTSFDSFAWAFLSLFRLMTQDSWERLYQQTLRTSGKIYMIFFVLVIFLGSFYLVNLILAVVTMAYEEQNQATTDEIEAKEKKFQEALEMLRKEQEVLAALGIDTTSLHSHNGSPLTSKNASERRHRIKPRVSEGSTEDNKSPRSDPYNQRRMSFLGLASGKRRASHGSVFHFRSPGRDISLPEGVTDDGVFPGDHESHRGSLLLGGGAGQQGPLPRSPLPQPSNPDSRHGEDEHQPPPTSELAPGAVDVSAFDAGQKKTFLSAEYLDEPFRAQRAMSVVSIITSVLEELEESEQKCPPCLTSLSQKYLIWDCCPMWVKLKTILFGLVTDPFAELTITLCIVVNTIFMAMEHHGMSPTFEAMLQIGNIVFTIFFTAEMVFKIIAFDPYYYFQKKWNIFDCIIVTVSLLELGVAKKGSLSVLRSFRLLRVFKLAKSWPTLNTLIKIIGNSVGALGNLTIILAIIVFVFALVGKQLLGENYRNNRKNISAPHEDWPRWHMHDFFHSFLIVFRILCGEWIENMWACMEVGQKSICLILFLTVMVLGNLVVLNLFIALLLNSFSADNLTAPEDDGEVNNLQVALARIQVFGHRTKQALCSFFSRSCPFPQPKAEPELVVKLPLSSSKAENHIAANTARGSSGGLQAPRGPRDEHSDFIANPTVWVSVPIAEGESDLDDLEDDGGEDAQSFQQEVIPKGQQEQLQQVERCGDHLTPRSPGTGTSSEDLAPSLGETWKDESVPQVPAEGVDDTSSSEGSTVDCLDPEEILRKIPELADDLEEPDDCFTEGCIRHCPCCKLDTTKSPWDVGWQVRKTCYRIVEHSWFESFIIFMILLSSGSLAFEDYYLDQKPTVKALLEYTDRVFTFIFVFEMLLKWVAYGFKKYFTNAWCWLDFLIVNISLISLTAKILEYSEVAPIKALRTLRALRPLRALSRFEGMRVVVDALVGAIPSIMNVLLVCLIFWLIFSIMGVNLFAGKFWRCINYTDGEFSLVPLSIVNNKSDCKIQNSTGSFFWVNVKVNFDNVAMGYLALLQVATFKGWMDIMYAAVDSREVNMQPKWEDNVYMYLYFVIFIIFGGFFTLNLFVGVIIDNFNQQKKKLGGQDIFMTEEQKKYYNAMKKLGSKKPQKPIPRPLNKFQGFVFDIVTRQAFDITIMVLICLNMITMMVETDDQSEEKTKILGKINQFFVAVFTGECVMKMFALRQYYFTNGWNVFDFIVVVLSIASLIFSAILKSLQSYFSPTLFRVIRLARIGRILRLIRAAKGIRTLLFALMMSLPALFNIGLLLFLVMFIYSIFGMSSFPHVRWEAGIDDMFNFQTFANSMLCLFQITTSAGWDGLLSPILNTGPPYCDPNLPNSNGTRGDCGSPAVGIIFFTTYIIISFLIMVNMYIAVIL", "experiment": "E-VIPR Assay Method A for detecting and measuring Nav inhibition (HEK cells, membrane potential FRET dyes, electrical stimulation)", "assay_type": "cell-based", "conditions": "HEK cells expressing human NaV 1.8, HS (human serum) in compound loading buffer, 11 point dose response, top dose 3 μM, Table 20, read-out: Nav 1.8 MedChem Optical Assay EVIPR Assay Method A HS IC50", "text": "(§1) E-VIPR Assay Method A for Detecting and Measuring Nav Inhibition Properties Sodium ion channels are voltage-dependent proteins that can be activated by inducing membrane voltage changes by applying electric fields. The electrical stimulation instrument and methods of use, referred to as E-VIPR, are described in International Publication No. WO 2002/008748 A3 and C.-J. Huang et al. Characterization of voltage-gated sodium channel blockers by electrical stimulation and fluorescence detection of membrane potential, 24 Nature Biotech. 439-46 (2006), both of which are incorporated by reference in their entirety. The instrument comprises a microtiter plate handler, an optical system for exciting the coumarin dye while simultaneously recording the coumarin and oxonol emissions, a waveform generator, a current- or voltage-controlled amplifier, and parallel electrode pairs that are inserted into assay plate wells. Under integrated computer control, this instrument passes user-programmed electrical stimulus protocols to cells within the wells of the microtiter plate. […] Sigma #F4135), 1% NEAA (Non-Essential Amino Acids, Life Tech #11140), 1% HEPES (Life Tech #15630), 1% Pen-Strep (Penicillin-Streptomycin; […] Cells were expanded in vented cap flasks, with 95% humidity and 5% CO2. Reagents and Stock Solutions: • 100 mg/mL Pluronic F-127 (Sigma #P2443), in dry DMSO • Compound Plates: […] 5% KIR 2.1 Bacmam virus (produced in-house), prepared as described in Section 3.3 of J. A. […] The solution was made by adding 10% Pluronic F127 stock equal to combined volumes of CC2-DMPE and DiSBAC6(3). The order of preparation was first mix Pluronic and CC2-DMPE, then add DiSBAC6(3), then while vortexing add Bath1/β-Cyclodextrin. […] Assay Protocol: […] Final DMSO concentration for all wells in the assay was 0.625% (0.75% DMSO was supplemented to the Compound Loading Buffer for a final DMSO concentration of 0.625%). […] 3) Cell plates were prepared. On the day of the assay, the media was aspirated, and the cells were washed three times with 80 μL of Bath-1 buffer, maintaining 25 μL residual volume in each well. 4) 25 μL per well of Hexyl Dye Solution was dispensed into the cell plates. The cells were incubated for 20 minutes at room temp or ambient conditions in darkness. 5) 80 μL per well of Compound Loading Buffer was dispensed into compound plates. 6) The cell plates were washed three times with 80 μL per well of Bath-1 Buffer, leaving 25 µL of residual volume. Then 25 uL per well from compound plate was transferred to each cell plate. The mixture was incubated for 30 minutes at room temp/ambient conditions. 7) The plate was read on E-VIPR using the current-controlled amplifier to deliver stimulation wave pulses using the following protocol: 1.25 Amps, 2.5 ms pulse width biphasic waveform, 10 Hz for 10 seconds at a scan rate of 200 Hz. A pre-stimulus recording was performed for 0.5 seconds to obtain the un-stimulated intensities baseline. The stimulatory waveform was followed by 0.5 seconds of post-stimulation recording to examine the relaxation to the resting state. Data Analysis: Data were analyzed and reported as normalized ratios of emission intensities measured in the 460 nm and 580 nm channels. The response as a function of time was reported as the ratios obtained using the following formula: […] The data were further reduced by calculating the initial (Ri) and final (Rf) ratios. These were the average ratio values during part or all of the pre-stimulation period and during sample points during the stimulation period. The fluorescence ratio (Rf/Ri) was then calculated and reported as a function of time. Control responses were obtained by performing assays in the presence of the positive control, and in the absence of pharmacological agents (DMSO vehicle negative control). Responses to the negative (N) and positive (P) controls were calculated as above. The compound antagonist % activity A was then defined as: [formula] where X is the ratio response of the test compound. […]", "units": {"IC50": "nM"}, "values": [{"smiles": "COc1cc(OC(F)(F)F)ccc1Oc1ccc(C(F)(F)C(F)(F)F)cc1C(=O)Nc1ccc(F)c(C(N)=O)c1", "note": "[Compound 19, N-(3-carbamoyl-4-fluoro-phenyl)-2-[2-methoxy-4-(trifluoromethoxy)phenoxy]-5-(1,1,2,2,2-pentafluoroethyl)benzamide]", "IC50": 10}, {"smiles": "COc1cc(OC(F)(F)F)ccc1Oc1cc(OC(F)F)cc(F)c1C(=O)Nc1ccnc(C(N)=O)c1", "note": "[Compound 20, 4-[[4-(difluoromethoxy)-2-fluoro-6-[2-methoxy-4-(trifluoromethoxy)phenoxy]benzoyl]amino]pyridine-2-carboxamide]", "IC50": 10}, {"smiles": "NC(=O)c1cc(NC(=O)c2c(Oc3ccc(OC(F)(F)F)cc3F)ccc(C(F)(F)F)c2F)ccc1F", "note": "[Compound 21, N-(3-carbamoyl-4-fluoro-phenyl)-2-fluoro-6-[2-fluoro-4-(trifluoromethoxy)phenoxy]-3-(trifluoromethyl)benzamide]", "IC50": 10}, {"smiles": "COc1cc(OC(F)(F)F)ccc1Oc1cc(C2CC2)cc(F)c1C(=O)Nc1ccnc(C(N)=O)c1", "note": "[Compound 22, 4-[[4-cyclopropyl-2-fluoro-6-[2-methoxy-4-(trifluoromethoxy)phenoxy]benzoyl]amino]pyridine-2-carboxamide]", "IC50": 11}, {"smiles": "COc1cc(OC(F)(F)F)ccc1Oc1cc(C(F)(F)F)c(F)cc1C(=O)Nc1ccc(F)c(C(N)=O)c1", "note": "[Compound 23, N-(3-carbamoyl-4-fluoro-phenyl)-5-fluoro-2-[2-methoxy-4-(trifluoromethoxy)phenoxy]-4-(trifluoromethyl)benzamide]", "IC50": 14}, {"smiles": "[2H]C([2H])([2H])Oc1cc(OC(F)(F)F)ccc1Oc1ccc(C(F)(F)F)c(F)c1C(=O)Nc1ccc(C(N)=O)nc1", "note": "[Compound 24, 5-[[2-fluoro-6-[2-(trideuteriomethoxy)-4-(trifluoromethoxy)phenoxy]-3-(trifluoromethyl)benzoyl]amino]pyridine-2-carboxamide]", "IC50": 18}, {"smiles": "NC(=O)c1cc(NC(=O)c2c(Oc3ccc(F)cc3)ccc(C(F)(F)F)c2F)ccc1F", "note": "[Compound 25, N-(3-carbamoyl-4-fluoro-phenyl)-2-fluoro-6-(4-fluorophenoxy)-3-(trifluoromethyl)benzamide]", "IC50": 18}, {"smiles": "COc1c(Oc2ccc(C(F)(F)F)c(F)c2C(=O)Nc2ccnc(C(N)=O)c2)ccc(OC(F)(F)F)c1F", "note": "[Compound 26, 4-[[2-fluoro-6-[3-fluoro-2-methoxy-4-(trifluoromethoxy)phenoxy]-3-(trifluoromethyl)benzoyl]amino]pyridine-2-carboxamide]", "IC50": 2}]}, {"target": "truncated form of human NaV 1.8 with full channel activity (Homo sapiens, UniProt Q9Y5Y9)", "experiment": "E-VIPR Assay Method A for detecting and measuring Nav inhibition (HEK cells, membrane potential FRET dyes, electrical stimulation)", "assay_type": "cell-based", "conditions": "HEK cells expressing human NaV 1.8, HS (human serum) in compound loading buffer, 11 point dose response, top dose 3 μM, Table 20A, read-out: Nav 1.8 MedChem Optical Assay EVIPR Assay Method A HS IC50", "text": "as §1", "units": {"IC50": "nM"}, "values": [{"smiles": "COc1cc(OC(F)(F)F)ccc1Oc1cc(C(F)(F)F)ccc1C(=O)Nc1ccc(F)c(C(N)=O)c1", "note": "[Compound 27, N-(3-Carbamoyl-4-fluoro-phenyl)-2-[2-methoxy-4-(trifluoromethoxy)phenoxy]-4-(trifluoromethyl)benzamide]", "IC50": 87}, {"smiles": "COc1cc(OC(F)(F)F)ccc1Oc1cc(C(F)(F)F)ccc1C(=O)Nc1cccc(C(N)=O)c1", "note": "[Compound 28, N-(3-Carbamoylphenyl)-2-[2-methoxy-4-(trifluoromethoxy)phenoxy]-4-(trifluoromethyl)benzamide]", "IC50": 108}, {"smiles": "COc1cc(OC(F)(F)F)ccc1Oc1cc(C(F)(F)F)ncc1C(=O)Nc1cccc(C(N)=O)c1", "note": "[Compound 29, N-(3-Carbamoylphenyl)-4-[2-methoxy-4-(trifluoromethoxy)phenoxy]-6-(trifluoromethyl)pyridine-3-carboxamide]", "IC50": 112}, {"smiles": "COc1cc(OC(F)(F)F)ccc1Oc1cc(C(F)(F)F)ncc1C(=O)Nc1ccc(F)c(C(N)=O)c1", "note": "[Compound 30, N-(3-Carbamoyl-4-fluoro-phenyl)-4-[2-methoxy-4-(trifluoromethoxy)phenoxy]-6-(trifluoromethyl)pyridine-3-carboxamide]", "IC50": 20}, {"smiles": "COc1cc(OC(F)(F)F)ccc1Oc1cc(C(F)(F)F)cnc1C(=O)Nc1cccc(C(N)=O)c1", "note": "[Compound 31, N-(3-Carbamoylphenyl)-3-[2-methoxy-4-(trifluoromethoxy)phenoxy]-5-(trifluoromethyl)pyridine-2-carboxamide]", "IC50": 155}, {"smiles": "COc1cc(OC(F)(F)F)ccc1Oc1cc(C(F)(F)F)cnc1C(=O)Nc1ccc(F)c(C(N)=O)c1", "note": "[Compound 32, N-(3-Carbamoyl-4-fluoro-phenyl)-3-[2-methoxy-4-(trifluoromethoxy)phenoxy]-5-(trifluoromethyl)pyridine-2-carboxamide]", "IC50": 55}, {"smiles": "CC(C)c1cc(Oc2ccc(OC(F)(F)F)c(F)c2)c(C(=O)Nc2ccc(F)c(C(N)=O)c2)cn1", "note": "[Compound 33, N-(3-Carbamoyl-4-fluoro-phenyl)-4-[3-fluoro-4-(trifluoromethoxy)phenoxy]-6-isopropyl-pyridine-3-carboxamide]", "IC50": 520}, {"smiles": "COc1cc(OC(F)(F)F)ccc1Oc1cc(C(F)(F)F)ncc1C(=O)Nc1ccnc(C(N)=O)c1", "note": "[Compound 34, N-(2-Carbamoyl-4-pyridyl)-4-[2-methoxy-4-(trifluoromethoxy)phenoxy]-6-(trifluoromethyl)pyridine-3-carboxamide]", "IC50": 83}, {"smiles": "COc1ncccc1Oc1cc(Cl)c(Cl)cc1C(=O)Nc1ccc(F)c(C(N)=O)c1", "note": "[Compound 35, N-(3-carbamoyl-4-fluoro-phenyl)-4,5-dichloro-2-[(2-methoxy-3-pyridyl)oxy]benzamide]", "IC50": 250}, {"smiles": "NC(=O)c1cc(NC(=O)c2cnc(C3CC3)cc2Oc2ccc(OC(F)(F)F)c(Cl)c2)ccc1F", "note": "[Compound 36, N-(3-Carbamoyl-4-fluoro-phenyl)-4-[3-chloro-4-(trifluoromethoxy)phenoxy]-6-cyclopropyl-pyridine-3-carboxamide]", "IC50": 215}, {"smiles": "NC(=O)c1cc(NC(=O)c2c(Oc3ccc(F)cc3)cccc2C(F)(F)F)ccc1F", "note": "[Compound 37, N-(3-Carbamoyl-4-fluoro-phenyl)-2-(4-fluorophenoxy)-6-(trifluoromethyl)benzamide]", "IC50": 890}, {"smiles": "COc1ccc(Oc2cccc(C(F)(F)F)c2C(=O)Nc2ccc(F)c(C(N)=O)c2)c(OC)c1", "note": "[Compound 38, N-(3-Carbamoyl-4-fluoro-phenyl)-2-(2,4-dimethoxyphenoxy)-6-(trifluoromethyl)benzamide]", "IC50": 700}, {"smiles": "NC(=O)c1cc(NC(=O)c2c(Oc3ccc(OC(F)(F)F)cc3)cccc2C(F)(F)F)ccc1F", "note": "[Compound 39, N-(3-Carbamoyl-4-fluoro-phenyl)-2-[4-(trifluoromethoxy)phenoxy]-6-(trifluoromethyl)benzamide]", "IC50": 210}, {"smiles": "COc1cc(OC(F)(F)F)ccc1Oc1cccc(C(F)(F)F)c1C(=O)Nc1ccc(F)c(C(N)=O)c1", "note": "[Compound 40, N-(3-Carbamoyl-4-fluoro-phenyl)-2-[2-methoxy-4-(trifluoromethoxy)phenoxy]-6-(trifluoromethyl)benzamide]", "IC50": 34}, {"smiles": "Cc1cc(F)ccc1Oc1cccc(C(F)(F)F)c1C(=O)Nc1ccc(F)c(C(N)=O)c1", "note": "[Compound 41, N-(3-Carbamoyl-4-fluoro-phenyl)-2-(4-fluoro-2-methyl-phenoxy)-6-(trifluoromethyl)benzamide]", "IC50": 560}, {"smiles": "NC(=O)c1cc(NC(=O)c2cnc(C3CC3)cc2Oc2ccc(OC(F)(F)F)c(F)c2)ccc1F", "note": "[Compound 42, N-(3-Carbamoyl-4-fluoro-phenyl)-6-cyclopropyl-4-[3-fluoro-4-(trifluoromethoxy)phenoxy]pyridine-3-carboxamide]", "IC50": 400}]}]}
